Source: patent US11065319B2, “Methods for diagnosing and reducing incidences of cardiac allograft rejection” (3DT Holdings, LLC, priority 2014, dated 2021)
Values joined by “and” are separate entries in the source; they are usually repeats but may differ in a detail not shown here. Equal values may be shown once. “Also recorded” adds a separate entry of the source.

Assays:
[1] = tested on: IgM in human heart biopsies; test: Displacement (elution) of IgM from human heart transplant biopsies; format: binding; conditions: for removal of IgM from heart biopsies by incubation: PC 50 mM, CRP 2.58 mg/ml, albumin 1 mg/ml; for vascular IgM in biopsy after incubation (immunohistochemistry): displacement experiments; for IgM anti-PC in biopsy eluates (ELISA): eluates after incubation of biopsies; for IgM in western blots of biopsy eluates: following incubation of biopsies
Experimental: To verify if the IgM removed from the heart biopsies is PC-specific, ELISA was performed.
One hundred and seventy-two (172) adult heart transplant patients (having a number of serial biopsies per patient in first three months post-transplant) were followed for several years and subsequently analyzed. CAV was diagnosed with serial angiographies for each patient. The percentage of microvascular IgM was quantified with double staining (IgM/CD31 or Ulex europaeus lectin). IgM and IgM anti-phosphorylcholine (PC) from biopsy eluates were determined with immunoblotting and enzyme-linked immunosorbent assays (ELISAs). Statistical analyses used univariate logistic regression, multivariate stepwise models, and Kaplan-Meier curves for different tertile groups.

[2] = tested on: cardiac allograft; test: Heterotopic heart transplant model of CAV with PC vaccination; format: in vivo, mice; conditions: mouse model of heart transplantation
Experimental: In addition to the mechanisms underlying MΦ differentiation and the effect of NAbs thereon, it is also important to identify what artheroprotective effect (if any) a PC vaccination may have in vivo. In an attempt to determine if experimental induction of IgM anti-PC NAbs have a beneficial effect on graft rejection and survival, experiments were conducted in an in vivo heart transplant model to measure such antibodies' affect on CAV and graft survival. Specifically, heart transplants and experimental vaccination were performed in normal mice (C57BL/6) and in IgM-deficient mice. Thereafter, IgM antibody response was measured, and a determination made as to what (if any) effect the vaccination had on graft survival.
The study used a 2×3 factorial design to test the (a) main effect of immunization defined by 3 conditions: experimental vaccination vs. negative control (vaccination with KLH vehicle) vs. positive control (intra-peritoneal mouse polyclonal IgM); and (b) main effect of mouse genotype—normal C57BL/6 vs. IgM-deficient mice—on cardiac graft rejection (see Table 2). […]
All mice underwent heart transplantation at 16 weeks of age, 8 weeks after initial vaccination. […] Cardiac allograft viability was thereafter assessed by daily abdominal palpation. […]
Graft survival curves were calculated in accordance with the Kaplan-Meier method. […]

[3] = tested on: IgM anti-PC NAbs; test: PC-KLH immunization of mice, serum IgM anti-PC by ELISA; format: in vivo
Description: In group 1, normal C57BL/6 mice (IgG+IgM producers) were immunized by PC-keyhole limpet hemocyanin (PC-KLH) to induce anti-PC NAb production. In group 2, IgM-deficient mice that have impaired IgM antibody production, but still have an IgG response were immunized.
As controls for PC immunization, mice of the same genotypes were vaccinated with KLH. These procedures define the conditions of a 2×2 factorial design, as depicted in Table 1, with 2 immunization conditions (PC or KLH), and 2 mouse genotypes (normal C57BL/6 and IgM-deficient). Eight weeks after immunization, all mice were euthanized by CO2 inhalation. Mouse sera from these animals was subsequently used to conduct the two in vitro studies. Additionally, the mouse serum IgM-anti-PC was analyzed using custom ELISA. Specifically, to establish the inflammatory milieu in the mouse sera used for the in vitro experiments, the sera was analyzed for pro-inflammatory TNF-α, IFN-γ, IL-1β, IL-6, IL-12 and anti-inflammatory IL-10 IL-4, IL-13, and TGF-β cytokines (SearchLight Multiplex Assay System, Aushom Biosystems).

[4] = tested on: human aortic and microvascular endothelial cells; test: Incubation of cultured endothelial cells with CRP (cell activation); format: cell-based; conditions: incubation with CRP vs controls without CRP
Description: Additionally, note the absence of ICAM-1 (subpart A of FIG. 7) and NF-κB nuclear expression (subpart C of FIG. 7) in the controls that lacked CRP exposure.

For `C[N+](C)(C)CCOP(=O)(O)O` [PC, phosphorylcholine], the “removal of IgM from heart biopsies by incubation” value [1] was “removed IgM from the biopsies; also recorded: can be removed”, the “vascular IgM in biopsy after incubation (immunohistochemistry)” value [1] was “removal of IgM; also recorded: showed biopsy removal” and the “IgM anti-PC in biopsy eluates (ELISA)” value [1] was 56.67±19.96 U/ml and 56.7±20.0 U/ml. For the same compound, the “IgM in western blots of biopsy eluates” value [1] was “showed IgM”, the graft survival [2] was “positive effect on graft survival” and the “production of specific IgM anti-PC NAbs” value [3] was “induced the production of specific IgM anti-PC NAbs”.

“CRP: C-reactive protein, pro-inflammatory molecule” was tested, and the “removal of IgM from heart biopsies by incubation” value [1] was “removed IgM from the biopsies; also recorded: can be removed”, the “vascular IgM in biopsy after incubation (immunohistochemistry)” value [1] was “removal of IgM; also recorded: showed biopsy removal” and the “IgM anti-PC in biopsy eluates (ELISA)” value [1] was 60.49±18.26 U/ml and 60.5±18.3 U/ml. The “IgM in western blots of biopsy eluates” value [1] was “showed IgM”, the ICAM-1 expression [4] was “increased ICAM-1 expression” and the NF-κB nuclear localization [4] was “nuclear factor-kappa B (NF-κB) nuclear localization”.
